The source of these data is US8815923B2, “Therapeutic compounds” (Allergan, Inc., priority 2007, dated 2014).

A word on the EC50: it is the concentration at which the effect is half-maximal. The low end stands for greater potency, the high end for weaker potency.

Common to all, as to format: cell-based
One assay concerns the target T1, alpha2B receptor (Homo sapiens, UniProt P18089).
T1 construct: expressed in transfected cells; host or cells: NIH-3T3
T1 sequence (P18089 1-450): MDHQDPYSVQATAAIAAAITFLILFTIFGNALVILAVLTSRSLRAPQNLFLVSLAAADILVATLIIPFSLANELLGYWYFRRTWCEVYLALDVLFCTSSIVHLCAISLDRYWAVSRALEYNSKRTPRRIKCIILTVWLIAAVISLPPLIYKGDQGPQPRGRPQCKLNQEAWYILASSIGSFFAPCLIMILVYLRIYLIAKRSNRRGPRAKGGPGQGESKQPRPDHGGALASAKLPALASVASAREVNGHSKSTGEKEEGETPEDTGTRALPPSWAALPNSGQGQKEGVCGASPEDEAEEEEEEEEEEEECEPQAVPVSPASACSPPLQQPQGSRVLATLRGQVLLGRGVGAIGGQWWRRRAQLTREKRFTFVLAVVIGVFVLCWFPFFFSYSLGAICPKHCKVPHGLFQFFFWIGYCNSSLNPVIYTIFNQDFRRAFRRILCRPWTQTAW
Put plainly: RSAT assay, Alpha 2B. The settings on record: for EC50: RSAT, transfected NIH-3T3 cells with Gq/i5, nd = not determinable at concentrations less than 10 micromolar; for Emax: read-out: Alpha 2B IA (intrinsic activity), in parentheses. The protocol: (§1) Receptor Selection and Amplification Technology (RSAT) Assay
(§2) The RSAT assay measures a receptor-mediated loss of contact inhibition that results in selective proliferation of receptor-containing cells in a mixed population of confluent cells. The increase in cell number is assessed with an appropriate transfected marker gene such as β-galactosidase, the activity of which can be easily measured in a 96-well format. Receptors that activate the G protein, Gq, elicit this response. Alpha2 receptors, which normally couple to Gi, activate the RSAT response when coexpressed with a hybrid Gq protein that has a Gi receptor recognition domain, called Gq/i5.
(§3) NIH-3T3 cells are plated at a density of 2×10^6 cells in 15 cm dishes and maintained in Dulbecco's modified Eagle's medium supplemented with 10% calf serum. One day later, cells are cotransfected by calcium phosphate precipitation with mammalian expression plasmids encoding p-SV-β-galactosidase (5-10 μg), receptor (1-2 μg) and G protein (1-2 μg). 40 μg salmon sperm DNA may also be included in the transfection mixture. Fresh media is added on the following day and 1-2 days later, cells are harvested and frozen in 50 assay aliquots. Cells are thawed and 100 μl added to 100 μl aliquots of various concentrations of drugs in triplicate in 96-well dishes. Incubations continue 72-96 hr at 37° C. After washing with phosphate-buffered saline, β-galactosidase enzyme activity is determined by adding 200 μl of the chromogenic substrate (consisting of 3.5 mM o-nitrophenyl-β-D-galactopyranoside and 0.5% nonidet P-40 in phosphate buffered saline), incubating overnight at 30° C. and measuring optical density at 420 nm. The absorbance is a measure of enzyme activity, which depends on cell number and reflects a receptor-mediated cell proliferation. The efficacy or intrinsic activity is calculated as a ratio of the maximal effect of the drug to the maximal effect of a standard full agonist for each receptor subtype. Brimonidine, also called UK14304, the chemical structure of which is shown below, is used as the standard agonist for the alpha2A, alpha2B and alpha2C receptors. The EC50 is the concentration at which the drug effect is half of its maximal effect.
(§4) EC50 values are nanomolar. ND stands for “not determinable” at concentrations less than 10 micromolar. IA stands for “intrinsic activity.”

For the next assay, the target named is T2, alpha2C receptor (Homo sapiens, UniProt P18825).
T2 construct: expressed in transfected cells; host or cells: NIH-3T3
T2 sequence (P18825 1-462): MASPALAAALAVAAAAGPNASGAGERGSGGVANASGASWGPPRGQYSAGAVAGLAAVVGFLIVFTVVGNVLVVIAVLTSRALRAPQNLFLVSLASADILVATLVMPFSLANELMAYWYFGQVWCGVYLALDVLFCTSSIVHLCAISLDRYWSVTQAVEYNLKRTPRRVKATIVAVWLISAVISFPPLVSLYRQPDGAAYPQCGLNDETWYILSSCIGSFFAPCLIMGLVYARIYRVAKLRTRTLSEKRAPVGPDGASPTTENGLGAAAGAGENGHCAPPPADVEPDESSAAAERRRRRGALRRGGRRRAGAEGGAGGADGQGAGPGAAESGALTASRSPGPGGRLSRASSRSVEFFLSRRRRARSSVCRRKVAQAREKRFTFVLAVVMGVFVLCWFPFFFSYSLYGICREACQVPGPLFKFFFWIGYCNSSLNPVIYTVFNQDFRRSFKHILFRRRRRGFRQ
The assay is described as follows: RSAT assay, Alpha 2C. The settings on record: for EC50: RSAT, transfected NIH-3T3 cells with Gq/i5, nd = not determinable at concentrations less than 10 micromolar; for Emax: read-out: Alpha 2C IA (intrinsic activity), in parentheses. Here is the method: as §1, §2, §3, §4

Another assay deals with T3, alpha2A receptor (Homo sapiens, UniProt P08913).
T3 construct: expressed in transfected cells; host or cells: NIH-3T3
T3 sequence (P08913 1-465): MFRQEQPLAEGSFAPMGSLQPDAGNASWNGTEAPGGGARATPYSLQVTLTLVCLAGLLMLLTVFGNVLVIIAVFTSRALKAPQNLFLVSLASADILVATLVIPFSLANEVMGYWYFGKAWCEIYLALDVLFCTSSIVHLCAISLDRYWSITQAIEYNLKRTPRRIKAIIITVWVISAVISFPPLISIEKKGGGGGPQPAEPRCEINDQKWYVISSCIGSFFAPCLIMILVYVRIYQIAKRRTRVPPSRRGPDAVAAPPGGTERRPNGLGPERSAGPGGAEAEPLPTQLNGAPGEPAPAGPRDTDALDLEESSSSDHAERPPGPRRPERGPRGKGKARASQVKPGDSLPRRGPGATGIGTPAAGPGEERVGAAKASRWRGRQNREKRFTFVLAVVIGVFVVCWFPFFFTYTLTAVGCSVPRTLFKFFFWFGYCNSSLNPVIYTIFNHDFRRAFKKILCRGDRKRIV
Put plainly: RSAT assay, Alpha 2A. The settings on record: for Emax: read-out: Alpha 2A IA (intrinsic activity), in parentheses. The protocol: as §1, §2, §3, §4

As for `c1ccc2c(c1)CCC[C@@H]2NC1=NCCN1` [compound 323], the EC50 on alpha2B receptor turned out to be 49 nM; on alpha2C receptor, 308 nM. For the same compound, the Emax at alpha2B receptor came to 102%; on alpha2C receptor it was 42%; at alpha2A receptor, 12%.

Take `c1ccc2c(c1)CCCC2NC1=NCCN1` (stereo not drawn) [compound 639, (4,5-Dihydro-1H-imidazol-2-yl)-(1,2,3,4-tetrahydro-naphthalen-1-yl)amine]: the EC50 on alpha2B receptor amounted to 37 nM; on alpha2C receptor, 179 nM. For the same compound, the figures for the Emax on alpha2B receptor, at alpha2C receptor and at alpha2A receptor were 84%, 50% and 25%, respectively.

On to `Cc1cc(C)c2c(c1)C(NC1=NCCN1)CCC2` (stereo not drawn) [compound 904, (4,5-Dihydro-1H-imidazol-2-yl)-(5,7-dimethyl-1,2,3,4-tetrahydro-naphthalen-1-yl)-amine], for which the EC50 on alpha2B receptor came out at 68 nM; at alpha2A receptor (RSAT, transfected NIH-3T3 cells with Gq/i5, nd = not determinable at concentrations less than 10 micromolar), 1620 nM. Also, the Emax was 80% on alpha2B receptor, 4% at alpha2C receptor and 35% on alpha2A receptor.
